Results from patent US20120213727A1, “THERAPEUTIC USES OF OLIGOMERIC AND POLYMERIC MONOTERPENES” (REGENERA PHARMA LTD., priority 2009, published 2012).

Test system: ARPE-19 cells
Test: Neuronal-like differentiation in ARPE-19 retinal pigment epithelial cell cultures
Assay type: cell-based, human
Settings: 72 hrs incubation, optical microscope
Procedure: ARPE-19 cells (obtained from the American Type Culture Collection, ATCC) were plated in flat bottom 96 well tissue culture microplates (Costar) at a concentration of 2-5×10^3 cells per well (1-2.5×10^4 cells/mL) in a growth medium consisting of DMEM:Ham F-12, 1:1, supplemented with 10% Fetal Bovine Serum, […] glutamine, 100 units/mL penicillin and 100 μg/mL streptomycin. The cells were allowed to adhere to the plate surfaces overnight prior to treatment with polymeric monoterpene.
Each type of polymeric monoterpene was synthesized to provide a 10% solution in grape seed oil, olive oil, Mygliol 810 or Mygliol 812. The preparations were added to the cultures at volumes of 0.5 μl, 2 μl, 5 μl and 20 μl. […]
The cultures were incubated in a 37° C., 5% CO2 incubator for 72 hrs. The medium was then removed, the cultures washed twice with phosphate buffered saline (PBS), fixed with absolute methanol for 10 min and stained with Hemacolor® reagents (Boehringer Mannheim), which stain cells in a manner similar to Giemsa, and may be used in a quantitative cell viability assay (see Keisari, Y. A colorimetric microtiter assay for the quantitation of cytokine activity on adherent cells in tissue culture. J. Immunol. Methods 146, 155-161, 1992). The degree of differentiation was determined by optical microscope. […]

CC=C(C)C=CC=C(C)C [monomeric alloocimene, 2,6-dimethyl-2,4,6-octatriene]
induction of neuronal differentiation (morphology): showed no such effects
induction of neuronal differentiation (morphology) (listed as monomeric allocimene): has no influence on the cells
